How the values were obtained:
[1] = system: HaCaT cells (human keratinocyte cell line); test: Promotion of collagen and hyaluronic acid (HA) expression, ELISA of culture supernatant; format: cell-based; conditions: 50 μM to 200 μM, 72 hours, FIG. 2
Procedure: (§1) NIH3T3 cells (mouse fibroblast) and HaCaT cells (human keratinocyte cell line) were seeded at a density of 1×10^4 cells/well in a 24-well plate and cultured for 24 hours. The cells were washed once with serum-free DMEM medium. Different amounts of peptides were added to 500 μL of serum-free DMEM medium to prepare peptide medium solutions having concentrations of 50 μM, 100 μM, and 200 μM, and the washed cells were treated with the prepared peptide medium solutions. As a positive control, 100 nM […] was used in NIH3T3 cells and 100 nM IGF-1 was used in HaCaT cells. The treated cells were then cultured in a CO2 incubator at 37° C. for 72 hours. The cell culture liquid was collected, centrifuged, and the supernatant was transferred to a tube. The obtained supernatant was subjected to ELISA analysis using the Collagen ELISA kit (Abcam, Cat No.: ab210579, UK) and HA ELISA kit (ECHELON Biosciences, Cat No.: K-1200, USA), respectively.

[2] = system: NIH3T3 cells (mouse fibroblast); test: as above; format: cell-based; conditions: 50 μM to 200 μM, 72 hours, FIG. 2
Procedure: as §1

[3] = Delay of hyaluronic acid degradation by reactive oxygen species in BDDE-cross-linked hyaluronic acid filler (Congo Red diffusion, absorbance 500 nm); conditions: 37° C., FIG. 6
Procedure: A 1,4-Butanediol diglycidyl ether (BDDE)-cross-linked hyaluronic acid filler with or without the peptide of Preparation Example 1 was prepared, and Congo Red and hyaluronidase (HAdase) as absorbing dyes were prepared. 20 μL of 1 mM Congo Red was added to each 1.5 mL eppendorf tube, and 100 μL each of the peptide-free filler (control filler) and the peptide-containing filler were added on the absorbing dye. Each was treated with 350 μL of 500 mM hydrogen peroxide (H2O2). Each tube was placed in an incubator at 37° C., and 100 μL of the sample supernatant was collected at time points of 1 hour, 3 hours, 6 hours, 24 hours, 48 hours, and 72 hours and transferred to 96-wells. The absorbance was measured at 500 nm using a microplate reader (SpectraMax iD3, Molecular devices, USA). As above, BDDE-cross-linked hyaluronic acid filler samples with or without the peptide were prepared, and the degree of degradation of hyaluronic acid filler by reactive oxygen species was compared depending on the presence or absence of peptide. The degree of degradation of hyaluronic acid filler was measured by the change in absorbance due to the diffusion of dye. That is, the principle that the flowability of the sample increases when hyaluronic acid is degraded by reactive oxygen species and thus the diffusion of the dye increases was utilized.

[4] = system: HaCaT cells (human keratinocyte cell line); test: Cell proliferation analysis (MTT); format: cell-based; conditions: peptide 1.6-1000 μM, 72 hours, FIG. 1
Procedure: (§2) NIH3T3 cells (mouse fibroblast) and HaCaT cells (human keratinocyte cell line) were seeded at a density of 1×10^4 cells/well in a 96-well plate and cultured for 24 hours. The cells were washed once with serum-free DMEM medium. Different amounts of peptides were added to 200 μL of serum-free DMEM medium to prepare peptide medium solutions having concentrations of 1.6 μM, 8 μM, 40 μM, 200 μM, and 1000 μM, and the prepared peptide medium solutions were treated to the washed cells. Then, the treated cells were cultured in a CO2 incubator at 37° C. for 72 hours, washed twice with PBS, and MTT (Sigma, Cat. No.: M2003, USA) solution was dispensed into each well to a final concentration of 0.5 mg/mL. Then, after blocking light, the cells were cultured in a CO2 incubator at 37° C. for 4 hours. The absorbance was measured at 540 nm using a microplate reader (SpectraMax iD3, Molecular devices, USA).

[5] = system: NIH3T3 cells (mouse fibroblast); test: Cell proliferation analysis (MTT); format: cell-based; conditions: peptide 1.6-1000 μM, 72 hours, FIG. 1
Procedure: as §2

[6] = system: hyaluronidase (HAdase); test: Delay of hyaluronic acid degradation by hyaluronidase in BDDE-cross-linked hyaluronic acid filler (Congo Red diffusion, absorbance 500 nm); format: biochemical; conditions: 24 hours after treatment with hyaluronidase, 37° C., FIG. 4
Procedure: A 1,4-Butanediol diglycidyl ether (BDDE)-cross-linked hyaluronic acid filler with or without the peptide of Preparation Example 1 was prepared, and Congo Red and hyaluronidase (HAdase) were prepared as absorbing dyes. 20 μL of 1 mM Congo Red was added to a 1.5 mL eppendorf tube, and 100 μL each of the peptide-free filler (control filler) and the peptide-containing filler were added on the absorbing dye. Each was treated with 350 μL of 0.15 mg/mL (108 units) of hyaluronidase. Each tube was placed in an incubator at 37° C., and 100 μL of the sample supernatant was collected at time points of 6 and 24 hours and transferred to a 96-well. The absorbance was measured at 500 nm using a microplate reader (SpectraMax iD3, Molecular Devices, USA). As above, BDDE-cross-linked hyaluronic acid filler samples with or without the peptide were prepared, and the degree of degradation of the hyaluronic acid filler by hyaluronidase was compared depending on the presence or absence of the peptide. The degree of degradation of the hyaluronic acid filler was measured by the change in absorbance according to the diffusion of the dye. That is, the principle, in which the flowability of the sample increases when hyaluronic acid is degraded by the degradation enzyme, thereby increasing the diffusion of the dye, was utilized.

[7] = Thermal stability of peptide (HPLC area); format: physicochemical; conditions: 1000 ppm solution, 25° C. and 50° C., 72 hours, FIG. 7a
Procedure: The evaluation of thermal stability was performed as follows. A diluted solution of the peptide of Preparation Example 1 at a concentration of 1000 ppm was prepared, dispensed into 50 mL conical tubes, and placed in an incubator at 25° C. and 50° C. After 72 hours, 1 mL of each sample was filtered through a 0.22 μm filter. The area values were compared at 25° C. based on pH 7 measured by HPLC.

[8] = system: hyaluronidase from bovine testes; test: Delay of hyaluronic acid degradation by hyaluronidase in hyaluronic acid solution (viscosity, rheometer); format: biochemical; conditions: 1.5 wt % hyaluronic acid in PBS
Procedure: Hyaluronic acid was dissolved in PBS to a concentration of 1.5 wt % and hydrated, and 10 g of this solution was dispensed into each conical tube. Peptide solutions were added to the dispensed hyaluronic acid solutions so that the final peptide concentrations were 0 ppm (no addition), 100 ppm, 1000 ppm, and 5000 ppm, respectively. 2 mL of hyaluronic acid degrading enzyme (hyaluronidase from bovine testes, Hadase, Sigma) was added to each conical tube. Viscosity was measured using a rheometer (single shear stress) by sampling at 0 and 30 minutes to compare the viscosity values according to the peptide concentration. As above, the 1.5 wt % hyaluronic acid solution containing the peptides at each concentration was treated with hyaluronidase, and the enzymatic reaction was maintained for 30 minutes to decompose hyaluronic acid. After the degradation reaction, the viscosity of the hyaluronic acid solution was measured to confirm the degradation delay efficacy.

[9] = Delay of hyaluronic acid degradation by reactive oxygen species in hyaluronic acid solution (viscosity, rheometer); conditions: 1.5 wt % hyaluronic acid in PBS, peptide 100, 1000, 5000 ppm, 500 mM H2O2, 60 and 180 minutes, FIG. 5
Procedure: Hyaluronic acid was dissolved in PBS to a concentration of 1.5 wt % and hydrated, and 10 g of this solution was dispensed into each conical tube. Peptide solutions were added to the dispensed hyaluronic acid solutions so that the final peptide concentrations were 0 ppm (no addition), 100 ppm, 1000 ppm, and 5000 ppm, respectively. 2 mL of 500 mM hydrogen peroxide (H2O2) was added to each. Viscosity was measured using a rheometer (single shear stress) by sampling at 0, 30, 60, and 180 minutes to compare the viscosity values according to the peptide concentration. As above, 1.5 wt % hyaluronic acid solutions containing peptides at each concentration were treated with hydrogen peroxide to maintain the degradation reaction by reactive oxygen species for 60 and 180 minutes, thereby degrading hyaluronic acid. After the degradation reaction, the viscosity of each hyaluronic acid solution was measured to confirm the degradation delaying efficacy.

[10] = pH stability of peptide (HPLC area); format: physicochemical; conditions: 1000 ppm solution titrated to pH 4, pH 7, pH 10, HPLC area relative to pH 7, FIG. 7b
Procedure: The evaluation of pH stability was performed as follows. A diluted solution of the peptide of Preparation Example 1 at a concentration of 1000 ppm was prepared, and the initial pH value of the solution was measured (pH=3.21). 0.5 M NaOH was added so as to titrate the pH of the solution to pH 4, pH 7, and pH 10, respectively. Each sample was filtered through a 0.22 μm filter. The area values were compared based on pH 7 measured by HPLC.

improvement of degradation delay versus peptide-free filler ([3]; 24 hours after treatment with 500 mM hydrogen peroxide): ≥ 50%
effect of delaying degradation ([3]; treated 48 hours with 500 mM hydrogen peroxide, filler without peptides mostly degraded): 85%
improvement of delay of degradation versus peptide-free filler [6]: ≥ 15%
difference in the degradation delay efficacy of 1000 ppm and 5000 ppm ([8]; hyaluronidase 30 minutes): not significant
Sequence: KIWNLEPSRNGT (H2N-Lys-Ile-Trp-Asn-Leu-Glu-Pro-Ser-Arg-Asn-Gly-Thr-COOH) [peptide having SEQ ID NO: 1]
collagen expression ([1]; Collagen ELISA): significant increase in collagen expression
hyaluronic acid (HA) expression ([1]; HA ELISA): increase in hyaluronic acid (HA) expression
collagen expression ([2]; Collagen ELISA): significant increase in collagen expression
hyaluronic acid (HA) expression ([2]; HA ELISA): increase in hyaluronic acid (HA) expression
effect of promoting cell proliferation [4]: significant effect of promoting cell proliferation
effect of promoting cell proliferation [5]: significant effect of promoting cell proliferation
thermal stability [7]: stable even at a high temperature of 50 °C
degradation delay efficacy (viscosity of hyaluronic acid solution after hyaluronidase) ([8]; peptide 100, 1000, 5000 ppm, 30 minutes, FIG. 3): degradation of hyaluronic acid was delayed as the concentration of the peptide increased
degradation delaying efficacy (viscosity of hyaluronic acid solution after hydrogen peroxide) [9]: degradation of hyaluronic acid was delayed as the concentration of peptide increased
pH stability [10]: stable even at a high temperature of 50 °C and in the range of pH 4 to pH 10

Source: patent US20260283925A1, “NOVEL PEPTIDE HAVING ACTIVITY OF RETARDING DEGRADATION OF HYALURONIC ACID AND USES THEREOF” (CAREGEN CO., LTD., priority 2023, published 2026)
